This is an account of results in patent US8536332B2, “Modulating signal transduction pathways with substituted pyridol [2,3-b] pyrazines” (Aeterna Zentaris GmbH, priority 2007, dated 2013).

By melting point is commonly meant the temperature of the solid-liquid transition. Compound `CCCNC(=O)Nc1cnc2ccc(-c3ccc(O)c(OC)c3)nc2n1` [Compound 16, 1-[6-(4-Hydroxy-3-methoxy-phenyl)-pyrido[2,3-b]pyrazin-3-yl]-3-propyl-urea] gave a melting point of 220 to 222 °C.
For `CCNC(=S)Nc1ccc2ncc(Nc3ccccc3OC)nc2n1` [Compound 332, 1-Ethyl-3-[3-(2-methoxy-phenylamino)-pyrido[2,3-b]pyrazin-6-yl]-thiourea] the value was 232 °C.
Take `CCNC(=O)Nc1ccc2ncc(-c3cccc(OCc4cc(OC)cc(OC)c4)c3)nc2n1` [Compound 121, 1-{3-[3-(3,5-Dimethoxy-benzyloxy)-phenyl]-pyrido[2,3-b]pyrazin-6-yl}-3-ethyl-urea]: the melting point lay in the range of 212 to 217 °C.
For `CCNC(=O)Nc1cnc2ccc(-c3ccc(C)c(N)c3)nc2n1` [Compound 180, 1-[6-(3-Amino-4-methyl-phenyl)-pyrido[2,3-b]pyrazin-3-yl]-3-ethyl-urea] the value was more than 320 °C; for `CCNC(=O)Nc1ccc2ncc(-c3ccc(OCCCN4CCOCC4)c(OC)c3)nc2n1` [Compound 63, 1-Ethyl-3-{3-[3-methoxy-4-(3-morpholin-4-yl-propoxy)-phenyl]-pyrido[2,3-b]pyrazin-6-yl}-urea], 225 to 227 °C.
For `CC(=O)Nc1ccc2ncc(Nc3cccc(OC(C)C)c3)nc2n1` [Compound 36, N-[3-(3-Isopropoxy-phenylamino)-pyrido[2,3-b]pyrazin-6-yl]-acetamide] the value was 177 °C; for `COc1cc(-c2ccc3ncc(NC(=O)Nc4ccccc4[N+](=O)[O-])nc3n2)ccc1O` [Compound 617, 1-[6-(4-Hydroxy-3-methoxy-phenyl)-pyrido[2,3-b]pyrazin-3-yl]-3-(2-nitro-phenyl)-urea], 220 to 222 °C; for `CCNC(=S)Nc1ccc2ncc(Nc3ccc4ccccc4c3)nc2n1` [Compound 168, 1-Ethyl-3-[3-(naphthalen-2-ylamino)-pyrido[2,3-b]pyrazin-6-yl]-thiourea], 289 °C.
The result for `CCNC(=O)Nc1ccc2ncc(Nc3ccc(C(=O)N4CCOCC4)cc3)nc2n1` [Compound 48, 1-Ethyl-3-{3-[4-(morpholine-4-carbonyl)-phenylamino]-pyrido[2,3-b]-pyrazin-6-yl}-urea] reads 276 to 279 °C; that for `CCNC(=O)Nc1ccc2ncc(-c3cccc(C(=O)OCC)c3)nc2n1` [Compound 119, 3-[6-(3-Ethyl-ureido)-pyrido[2,3-b]pyrazin-3-yl]-benzoic acid ethyl ester], 222 to 223 °C.
As for `COc1cc(Nc2cnc3ccc(NC(=S)NCc4ccc(F)cc4)nc3n2)cc(OC)c1OC` [Compound 701, 1-(4-Fluoro-benzyl)-3-[3-(3,4,5-trimethoxy-phenylamino)-pyrido[2,3-b]pyrazin-6-yl]-thiourea], the melting point is 255 °C.
In turn, `CCNC(=S)Nc1ccc2ncc(Nc3ccc(OC)c(Cl)c3)nc2n1` [Compound 159, 1-[3-(3-Chloro-4-methoxy-phenylamino)-pyrido[2,3-b]pyrazin-6-yl]-3-ethyl-thiourea] came in with a melting point of 276 °C.
For `CCNC(=S)Nc1ccc2ncc(Nc3ccc(-n4cncn4)cc3)nc2n1` [Compound 164, 1-Ethyl-3-[3-(4-[1,2,4]triazol-1-yl-phenylamino)-pyrido[2,3-b]pyrazin-6-yl]-thiourea] the value was 294 °C.
The result for `CCCCCNC(=S)Nc1ccc2ncc(Nc3cc(OC)c(OC)c(OC)c3)nc2n1` [Compound 702, 1-Pentyl-3-[3-(3,4,5-trimethoxy-phenylamino)-pyrido[2,3-b]pyrazin-6-yl]-thiourea] reads 210 °C; that for `CCCCCCNC(=O)Nc1cnc2ccc(-c3ccc(O)c(OC)c3)nc2n1` [Compound 627, 1-Hexyl-3-[6-(4-hydroxy-3-methoxy-phenyl)-pyrido[2,3-b]pyrazin-3-yl]-urea], 234 to 235 °C.
`CCNC(=O)Nc1ccc2ncc(Nc3ccc(O)cc3C)nc2n1` [Compound 394, 1-Ethyl-3-[3-(4-hydroxy-2-methyl-phenylamino)-pyrido[2,3-b]pyrazin-6-yl]-urea] returned a melting point of 272 °C.
Compound `CCNC(=O)Nc1cnc2ccc(-c3ccc(Cl)cc3)nc2n1` [Compound 6, 1-[6-(4-Chloro-phenyl)-pyrido[2,3-b]pyrazin-3-yl]-3-ethyl-urea] showed a melting point of 276 °C.
In turn, `CCNC(=O)Nc1cnc2ccc(Nc3cccc(CC(=O)O)c3)nc2n1` [Compound 194, {3-[3-(3-Ethyl-ureido)-pyrido[2,3-b]pyrazin-6-ylamino]-phenyl}-acetic acid] yielded a melting point of 305 to 308 °C.
The result for `COc1cc(-c2ccc3ncc(NC(=O)NCCCc4ccccc4)nc3n2)ccc1O` [Compound 629, 1-[6-(4-Hydroxy-3-methoxy-phenyl)-pyrido[2,3-b]pyrazin-3-yl]-3-(3-phenyl-propyl)-urea] reads 233 to 236 °C; that for `CCNC(=O)Nc1ccc2ncc(-c3ccccc3OCc3ccccc3)nc2n1` [Compound 57, 1-[3-(2-Benzyloxy-phenyl)-pyrido[2,3-b]pyrazin-6-yl]-3-ethyl-urea], 181 to 183 °C; that for `COc1cc(-c2ccc3ncc(NC(=S)NC4CCCCCCC4)nc3n2)ccc1O` [Compound 653, 1-Cyclooctyl-3-[6-(4-hydroxy-3-methoxy-phenyl)-pyrido[2,3-b]pyrazin-3-yl]-thiourea], 250 to 251 °C.
Consider `CCNC(=S)Nc1ccc2ncc(Nc3ccccc3O)nc2n1` [Compound 149, 1-Ethyl-3-[3-(2-hydroxy-phenylamino)-pyrido[2,3-b]pyrazin-6-yl]-thiourea], for which the melting point amounted to 280 °C.
The result for `CCNC(=O)Nc1ccc2ncc(-c3cc(C)cc(Br)c3OC)nc2n1` [Compound 110, 1-[3-(3-Bromo-2-methoxy-5-methyl-phenyl)-pyrido[2,3-b]pyrazin-6-yl]-3-ethyl-urea] reads 228 to 230 °C; that for `COc1ccc(-c2ccc3ncc(NC(=O)Nc4ccccc4)nc3n2)cc1OC` [Compound 580, 1-[6-(3,4-Dimethoxy-phenyl)-pyrido[2,3-b]pyrazin-3-yl]-3-phenyl-urea], 248 to 251 °C; that for `CCNC(=O)Nc1ccc2ncc(-c3ccccc3F)nc2n1` [Compound 103, 1-Ethyl-3-[3-(2-fluoro-phenyl)-pyrido[2,3-b]pyrazin-6-yl]-urea], 226 to 228 °C.
The result for `CCNC(=O)Nc1cnc2ccc(Cl)nc2n1` [Example 1, 1-(6-Chloro-pyrido[2,3-b]pyrazin-3-yl)-3-ethyl-urea] reads 240 °C.
The compound `CCCCOc1c(C)cc(-c2ccc3ncc(NC(=O)NCC)nc3n2)cc1C` [Compound 599, 1-[6-(4-Butoxy-3,5-dimethyl-phenyl)-pyrido[2,3-b]pyrazin-3-yl]-3-ethyl-urea] yielded a melting point of 233 °C.
As for `COc1ccc(-c2ccc3ncc(NC(=O)NC4CCCC4)nc3n2)cc1OC` [Compound 576, 1-Cyclopentyl-3-[6-(3,4-dimethoxy-phenyl)-pyrido[2,3-b]pyrazin-3-yl]-urea], the melting point is 261 to 264 °C.
`CCNC(=O)Nc1ccc2ncc(-c3cc(C(C)=O)ccc3F)nc2n1` [Compound 79, 1-[3-(5-Acetyl-2-fluoro-phenyl)-pyrido[2,3-b]pyrazin-6-yl]-3-ethyl-urea] displayed a melting point of 238.1 to 241.8 °C.
